Values of other authors in patent publication US20070036859A1, “Sustained release antihistamine and decongestant composition” (priority 2005, published 2007).

Conditions: conventional tablets, oral

CCOC(=O)N1CCC(=C2c3ccc(Cl)cc3CCc3cccnc32)CC1 [loratadine]
duration of antihistaminic effect: > 24 h
time to begin of antihistaminic effect after ingestion: one to three
